Experimental data reported in patent US10851082B2, “Substituted aromatic n-heterocyclic compounds as inhibitors of mitogen-activated protein kinase interacting kinase 1 (MNK1) and 2 (MNK2)” (Northwestern University, priority 2015, dated 2020).
Where two headings read alike, the source gives them in different places.

Legend:
[1] = system: MV4-11 cells; assay: Cell viability assay (CellTiter-Glo), MV4-11; format: cell-based; conditions: Homo sapiens
Experimental: (§1) To measure the ability of the new Mnk1/2 inhibitors to kill cancer cells in vitro, U937 or MV4-11 cells were incubated with different concentrations of test compounds and analyzed for apoptosis and cell viability at 5 and 24 hours post-treatment.

[2] = biological target: T1, Mnk1 (Homo sapiens (Human), UniProt Q9BUB5); assay: Mnk1 kinase inhibition, ADP-Glo ADP monitoring assay; format: biochemical
Target sequence in this assay (Q9BUB5 whole entry): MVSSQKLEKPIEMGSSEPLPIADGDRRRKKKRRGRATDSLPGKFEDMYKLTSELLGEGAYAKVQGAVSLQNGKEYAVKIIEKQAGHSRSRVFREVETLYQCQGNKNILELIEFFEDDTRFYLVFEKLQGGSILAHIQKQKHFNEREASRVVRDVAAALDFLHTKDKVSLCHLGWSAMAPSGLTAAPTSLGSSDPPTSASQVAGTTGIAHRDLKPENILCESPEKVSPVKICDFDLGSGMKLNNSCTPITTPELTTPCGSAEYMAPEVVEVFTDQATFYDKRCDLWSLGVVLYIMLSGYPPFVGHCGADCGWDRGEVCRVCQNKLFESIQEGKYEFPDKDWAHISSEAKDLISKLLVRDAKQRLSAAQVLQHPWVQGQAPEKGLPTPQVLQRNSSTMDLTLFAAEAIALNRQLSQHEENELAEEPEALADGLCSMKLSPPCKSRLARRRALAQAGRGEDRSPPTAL
Experimental: (§2) The synthesized compounds then were tested for inhibition of the kinase activity (IC50) of Mnk1 and/or Mnk2 using the ADP monitoring assay for kinases described in Zegzouti, H.; Zdanovskaia, M.; Hsiao, K.; Goueli, S. A., ADP-Glo: A Bioluminescent and homogeneous ADP monitoring assay for kinases.

[3] = biological target: T1, Mnk1; assay: Cellular inhibition of Mnk1, flow cytometry of phospho-eIF-4E (Ser209), U937 cells; format: cell-based; conditions: phospho-eIF-4E Ser209, flow cytometry, read-out: U937 pEIF4E IC50
Target sequence in this assay (Q9BUB5 whole entry, looked up): as the sequence (Q9BUB5 whole entry) above
Experimental: (§3) To evaluate inhibition of Mnk1 in cells, we utilized a flow cytometry-based assay based on activation of eIF-4E, the downstream target of Mnk1. The assay utilizes flow cytometry to quantitatively measure the amount of eIF-4E that is phosphorylated at residue Ser209 in cell lysate from U937 or MV4-11 cell lines. Cells grown in the presence of serum were treated with vehicle or test compounds across a range of concentrations. Levels of phospho-eIF-4E were measured and IC50 values were determined by logistic regression to quantify the potency of each compound.

[4] = system: U937 cells; assay: Cell viability assay (CellTiter-Glo), U937; format: cell-based; conditions: Homo sapiens
Experimental: as §1

[5] = biological target: T1, Mnk1; assay: Cellular inhibition of Mnk1, flow cytometry of phospho-eIF-4E (Ser209), MV4-11 cells; format: cell-based; conditions: phospho-eIF-4E Ser209, flow cytometry, read-out: MV4-11 pEIF4E IC50
Target sequence in this assay (Q9BUB5 whole entry, looked up): as the sequence (Q9BUB5 whole entry) above
Experimental: as §3

[6] = biological target: Mnk2 (Homo sapiens (Human), UniProt Q9HBH9); assay: Mnk2 kinase inhibition, ADP-Glo ADP monitoring assay; format: biochemical
Experimental: as §2

[7] = biological target: Mnk1; assay: Cellular inhibition of Mnk1, flow cytometry of phospho-eIF-4E (Ser209), MV4-11 cells; format: cell-based; conditions: read-out: MV4-11 pEIF4E cellular flow IC50 (+,++,+++), flow cytometry
Experimental: as §3

[8] = biological target: Mnk1; assay: Cellular inhibition of Mnk1, flow cytometry of phospho-eIF-4E (Ser209), U937 cells; format: cell-based; conditions: read-out: U937 pEIF4E cellular flow IC50 (+,++,+++), flow cytometry
Experimental: as §3

[9] = read-out: Mnk1 inhibition IC50 (+,++,+++)
[10] = ADP-Glo kinase assay, read-out: Mnk2 inhibition IC50 (+,++,+++)

Chain of Mnk2 (Q9HBH9 whole entry): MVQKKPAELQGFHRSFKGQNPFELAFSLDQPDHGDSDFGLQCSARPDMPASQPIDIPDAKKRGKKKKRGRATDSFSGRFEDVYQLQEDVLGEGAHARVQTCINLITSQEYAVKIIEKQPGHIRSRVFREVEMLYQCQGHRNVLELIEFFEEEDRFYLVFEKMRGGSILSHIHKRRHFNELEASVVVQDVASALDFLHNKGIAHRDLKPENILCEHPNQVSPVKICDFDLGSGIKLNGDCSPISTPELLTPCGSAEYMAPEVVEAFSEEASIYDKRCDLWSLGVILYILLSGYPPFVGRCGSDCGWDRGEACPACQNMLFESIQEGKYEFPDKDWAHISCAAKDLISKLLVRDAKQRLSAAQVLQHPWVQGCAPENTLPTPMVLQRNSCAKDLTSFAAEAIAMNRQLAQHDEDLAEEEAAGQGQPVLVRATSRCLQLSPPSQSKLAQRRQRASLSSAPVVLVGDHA

SMILES	IC50 [2, 9] [nM]	IC50 [7] [nM]	IC50 [6, 10] [nM]	IC50 [8] [nM]	other results
c1cncc(CCNc2ccnc(-n3cnc4ccccc43)n2)c1 [NUCC-0176341]	–	–	–	–	EC50 ([1]; MV4-11, read-out: MV4-11 viability EC50): 190 nM; IC50 ([2]; read-out: Mnk1 IC50): 210 nM; IC50 [3]: 42 nM; EC50 ([4]; U-937, read-out: U937 viability EC50): 13000 nM; IC50 [5]: 35 nM; IC50 ([6]; ADP-Glo kinase assay, read-out: Mnk2 IC50): 26 nM
N#Cc1cnc(NCCc2ccncc2)nc1-n1cnc2ccccc21 [NUCC-0176343]	–	–	–	–	EC50 ([1]; MV4-11 cells, ATP levels with CellTiter-Glo, read-out: MV4-11 viability EC50): 410 nM; EC50 ([4]; U-937, U937 cells, ATP levels with CellTiter-Glo, read-out: U937 viability EC50): 2600 nM
Clc1cnc(OCCc2ccncc2)nc1-n1cnc2ccccc21 [NUCC-0196254, 1-(5-chloro-2-(2-(pyridin-4-yl)ethoxy)pyrimidin-4-yl)-1H-benzo[d]imidazole]	< 1000	< 1000	< 1000	–	IC50 ([2]; unit inferred, read-out: Mnk1 IC50): 54 nM; IC50 ([6]; ADP-Glo kinase assay, unit inferred, read-out: Mnk2 IC50): 9.6 nM
N#Cc1cnc(OCCc2ccncc2)nc1-n1cnc2ccccc21 [NUCC-0200786]	< 1000	< 1000	< 1000	< 1000	–
N#Cc1cnc(OCCN2CCCC2=O)nc1-n1cnc2ccccc21 [NUCC-0200788]	< 1000	< 1000	< 1000	< 1000	–
N#Cc1cnc(OCCc2ccccn2)nc1-n1cnc2ccccc21 [NUCC-0200790]	< 1000	< 1000	< 1000	< 1000	–
N#Cc1cnc(OC2CCOC2)nc1-n1cnc2ccccc21 (stereo not shown) [NUCC-0200792]	< 1000	< 1000	< 1000	< 1000	–
N#Cc1cnc(OC2CCNC2)nc1-n1cnc2ccccc21 (stereo not shown) [NUCC-0200793]	< 1000	< 1000	< 1000	< 1000	–
Clc1cnc(OC2CCCOC2)nc1-n1cnc2ccccc21 (stereo not shown) [NUCC-0200803]	< 1000	< 1000	< 1000	< 1000	–
Clc1cnc(OCCc2ccccn2)nc1-n1cnc2ccccc21 [NUCC-0200807]	< 1000	< 1000	< 1000	< 1000	–
O=C1CCCN1CCOc1ncc(Cl)c(-n2cnc3ccccc32)n1 [NUCC-0200811]	< 1000	< 1000	< 1000	< 1000	–
N#Cc1cnc(OC2CC(N)C2)nc1-n1cnc2ccccc21 (stereo not shown) [NUCC-0200907, 2-(3-aminocyclobutoxy)-4-(1H-benzo[d]imidazol-1-yl)pyrimidine-5-carbonitrile]	< 1000	< 1000	< 1000	< 1000	–
NC1CC(Oc2nc(C3CC3)c(Cl)c(-n3cnc4ccccc43)n2)C1 (stereo not shown) [NUCC-0201915, 3-((4-(1H-benzo[d]imidazol-1-yl)-5-chloro-6-cyclopropylpyrimidin-2-yl)oxy)cyclobutanamine]	1000 to 10000	–	–	–	IC50 [6]: 1000 to 10000 nM
CCc1nc(OC2CC(N)C2)nc(-n2cnc3ccccc32)c1Cl (stereo not shown) [NUCC-0201916]	1000 to 10000	–	–	–	IC50 [6]: 1000 to 10000 nM
CC(C)(COc1ncc(C#N)c(-n2cnc3ccccc32)n1)c1ccnc(F)c1 [NUCC-0201917]	< 1000	–	< 1000	–	–
N#Cc1cnc(OCCc2ccnc(F)c2)nc1-n1cnc2ccccc21 [NUCC-0201918]	< 1000	–	< 1000	–	–
CC(C)(COc1ncc(Cl)c(OCC(C)(C)c2ccnc(F)c2)n1)c1ccnc(F)c1 [NUCC-0201919]	1000 to 10000	–	–	–	IC50 [6]: 1000 to 10000 nM
CC(C)(COc1nc(-n2cnc3ccccc32)ncc1Cl)c1ccnc(F)c1 [NUCC-0201920]	< 1000	–	< 1000	–	–
